Values after ≈ are worked out from the molar mass of the structure shown.
Assays:
Type in all cases: in vivo
house flies = test: Campbell's turn table oil spray test on house fly adults (Experimental Example 1); settings: Musca domestica, 24 h, oil spray 5 ml, 10 min exposure, mortality after 1 day, read-out: LC50 (50 percent lethal concentration)
Method: The present compounds (1), (4), (8), (10), (14), (15), (20), (22), (32), (36), (38), (41), (44), (48), (50), (51), (52), (53), (61), (66), (68), (72), (73), (78), (80), (81), (90), (93) and (96), and chrysanthemic acid esters and pyrethric acid esters corresponding thereto were individually formulated by use of deodorized kerosene into oil sprays of various test concentrations.
Using the Campbell's turn table [disclosed in "Soap & Sanitary Chemicals," Vol. 14, No. 6, page 119 (1938)], 5 ml. of each of the oil sprays was sprayed. When 20 seconds had elapsed after the spraying, the shutter was opened, and adults of house flies (a group of about 100 flies) were exposed to the settling mist for 10 minutes and then transferred to an observation cage.
The above operation was repeated several times to measure the LC50 (50 percent lethal concentration) of each compound.

rice stem borer larvae = test: micro dropping (topical) test on hibernating rice stem borer larvae (Experimental Example 3); settings: topical in acetone, head and tail of larvae, 3 days
Source text: The present compounds (1), (4), (8), (10), (14), (15), (22), (32), (36), (38), (41), (44), (48), (50), (51), (52), (53), (61), (66), (68), (72), (73), (80), (81), (90) and (93) and chrysanthemic acid esters corresponding thereto were individually dissolved in acetone to prepare insecticides of various concentrations. Using a micro dropping means, each of the insecticides was dropped to the head and tail of hibernating rice stem borer larvae.

[1] = test system: Northern house mosquitoes; test: knock-down test of oil sprays on Northern house mosquito adults in (70 cm)^3 glass chamber (Experimental Example 2)
Method: The present compounds (1), (6), (20), (22), (23), (25), (27), (29), (30), (31), (39), (42), (43), (45), (49), (53), (56), (62), (64), (78), (81), (83), (85), (87), (88) and (89), and chrysanthemic acid esters and pyrethric acid esters corresponding thereto were individually formulated by use of deodorized kerosene into oil sprays of various test concentrations.
About 20 adults of Northern house mosquitoes were liberated in a (70 cm)^3 glass chamber, and 0.7 ml. of each of the oil sprays was sprayed into the chamber under a pressure of 1.5 kg/cm^2 by use of a glass atomizer. Subsequently, the number of knocked-down mosquitoes was counted to calculate the KT50 (50 percent knock down time) of each compound.

[2] = concentration of oil spray 0.1%
[3] = concentration of oil spray 0.2%

Row | Compound | LC50 (house flies) | LD50 (50 percent lethal dose) (rice stem borer larvae) | KT50 (50 percent knock down time) [1, 2] | KT50 (50 percent knock down time) [1, 3]
1 | C=CC(C)=CC1C(C(=O)OC(C#N)c2cccc(Oc3ccccc3)c2)C1(C)C (stereo not drawn) [Present compound (22), 3-Phenoxy-α-cyanobenzyl 2',2'-dimethyl-3'-(2"-methyl-1",3"-butadienyl)-cyclopropanecarboxylate] | 40 µg/mL (≈ 103 µM) | 0.006 γ/larva | 168 s | 
2 | C=C(C)C=CC1C(C(=O)OCc2coc(Cc3ccccc3)c2)C1(C)C (centres unmarked) [Present compound (53), 5-Benzyl-3-furylmethyl 2',2'-dimethyl-3'-(3"-methyl-1",3"-butadienyl)-cyclopropanecarboxylate] | 71 µg/mL (≈ 203 µM) | 0.170 γ/larva |  | 124 s
3 | C=CCC1=C(C)C(OC(=O)C2C(C=C(C)C)C2(C)C)CC1=O (centres unmarked) [Allethrin, reference compound] | 1180 µg/mL (≈ 3900 µM) | 2.6 γ/larva | 292 s | 197 s
4 | C=CC(C)=CC1C(C(=O)OCc2coc(Cc3ccccc3)c2)C1(C)C (centres unmarked) [Present compound (1), 5-Benzyl-3-furylmethyl 2',2'-dimethyl-3'-(2"-methyl-1", 3"-butadienyl)-cyclopropanecarboxylate] | 53 µg/mL (≈ 151 µM) | 0.068 γ/larva |  | 131 s
5 | C=CC=CC1C(C(=O)OC2CC(=O)C(CC=C)=C2C)C1(C)C (centres unmarked) [Present compound (81), 2-Allyl-3-methyl-2-cyclopentene-1-one-4-yl 2',2'-dimethyl-3'-(1",3"-butadienyl)-cyclopropanecarboxylate] | 590 µg/mL (≈ 1960 µM) | 1.7 γ/larva |  | 141 s
6 | C=CC=CC1C(C(=O)OC(C#N)c2cccc(Oc3ccccc3)c2)C1(C)C (stereo not drawn) [Present compound (80), 3-Phenoxy-α-cyanobenzyl 2',2'-dimethyl-3'-(1",3"-butadienyl)-cyclopropanecarboxylate] | 35 µg/mL (≈ 93.7 µM) | 0.005 γ/larva |  | 
7 | CC(C)=CC1C(C(=O)OCc2coc(Cc3ccccc3)c2)C1(C)C (centres unmarked) [5-Benzyl-3-furylmethyl chrysanthemate, 5-benzyl-3-furylmethyl chrysanthemate, reference compound] | 100 µg/mL (≈ 295 µM) | 0.20 γ/larva |  | 205 s
8 | C#CCc1ccc(COC(=O)C2C(C=C(C)C)C2(C)C)cc1 (centres unmarked) [4-Propargylbenzyl chrysanthemate, reference compound] | 850 µg/mL (≈ 2870 µM) | 0.99 γ/larva |  | 
9 | CC(C)=CC1C(C(=O)OC(C#N)c2cccc(Oc3ccccc3)c2)C1(C)C (stereo not drawn) [3-Phenoxy-α-cyanobenzyl chrysanthemate, reference compound] | 60 µg/mL (≈ 160 µM) | 0.01 γ/larva | 230 s | 
